In PMC7263589, “Integration of phage and yeast display platforms: A reliable and cost effective approach for binning of peptides as displayed on-phage” (PLoS ONE, 2020):
Bridge positions count the residues as written; N and C are the ends. Peptide text beside a SMILES is read from it.

Assays:
[1] = molecular target: T1, IL-23 (Homo sapiens, UniProt P29460+Q9NPF7); assay: SPR direct binding to captured IL-23-AVI (Biacore T200); conditions: for kon: 50 μl/min, 10 mM HEPES pH 7.5, 150 mM NaCl, 0.005% P20, 3% DMSO, multi-cycle (single cycle kinetics for 23–652 and IL-23R), read-out: ka
T1 construct: made in house
T1 sequence (Q9NPF7 20-189): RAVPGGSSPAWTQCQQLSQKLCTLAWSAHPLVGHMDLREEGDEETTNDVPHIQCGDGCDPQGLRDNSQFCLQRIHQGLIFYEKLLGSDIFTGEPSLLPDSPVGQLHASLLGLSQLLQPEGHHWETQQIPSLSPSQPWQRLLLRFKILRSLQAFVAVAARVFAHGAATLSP
T1 sequence (P29460 23-328): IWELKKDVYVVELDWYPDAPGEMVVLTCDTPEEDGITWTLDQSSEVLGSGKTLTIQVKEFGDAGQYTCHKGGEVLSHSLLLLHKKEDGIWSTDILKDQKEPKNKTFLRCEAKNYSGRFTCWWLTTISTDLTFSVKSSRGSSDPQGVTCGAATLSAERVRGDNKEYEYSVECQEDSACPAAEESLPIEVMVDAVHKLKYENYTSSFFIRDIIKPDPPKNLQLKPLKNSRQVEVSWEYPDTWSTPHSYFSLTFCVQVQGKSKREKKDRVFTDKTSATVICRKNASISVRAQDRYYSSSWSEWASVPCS
Method: SPR (Biacore T200, GE Healthcare) was used to determine binding constants of the peptides against IL-23 and their competitiveness to IL-23R. All SPR experiments were performed at 25°C with flow rate of 50 μl/min. Assay buffer used in direct binding experiment was 10 mM HEPES pH 7.5, 150 mM NaCl, 0.005% P20, and 3% DMSO. Assay buffer used in competition experiment was 10 mM HEPES pH 7.5, 150 mM NaCl, 0.005% P20, and 1% BSA. All peptides were reconstituted first in DMSO as 10 mM stocks and then diluted into assay buffer. The proteins used in direct binding and competition SPR are described in S1 Table in S1 File. For direct binding of peptides against IL-23, 2000–9000 RU of IL-23-AVI was captured to streptavidin sensor chips (GE Healthcare, Series S Sensor Chip SA, BR-1005-31). Dilution series with 3-fold increment were prepared for each peptide. Initially, all peptides were tested up to 30 μM. Concentration range for some were then lowered accordingly based on affinity or nuisance behavior at high concentrations. SPR “multi-cycle” type was used for peptides 23–644, 23–437, 23–441, 23–446, and 23–447. Each cycle consisted of 30s of analyte injection and then 60s of buffer flow to monitor dissociation. “Single cycle kinetics” (SCK) type was used for 23–652 due to their long dissociation half-lives. Each SCK cycle consisted of five 60s injections of sample in increasing concentration with a final 600s of dissociation. To study IL-23 and IL-23R interaction, 200–1000 RU of IL-23-AVI and IL-23R-Fc-AVI were captured to streptavidin sensor chip. Dilution series with 3-fold increment of IL-23R-FLAG-HIS and IL-23-HIS were run in SCK cycle type as described above except the final dissociation time were 60-300s. Sensorgrams from the entire titration series for each sample were fitted globally to extract binding kinetics and affinity using Biacore T200 Evaluation Software 2.0 (GE Healthcare) according to a 1:1 binding model. To identify IL-23 binders that can block receptor binding, a competition SPR was established. In each SPR cycle, fresh IL-23R was capture (<1000 RU) by injecting 10 μg/ml of IL-23R-Fc-AVI to a Protein-A flow cell at 10 μl/min flow rate for 30s. Analyte consisted of a mixture of 20 nM of IL-23 protein and a single concentration of peptide was then injected for 30s at 50 μl/min to observe IL-23 binding. Finally, the Protein-A surface was regenerated by 10 mM Glycine pH 1.5 for 30s at 30 μl/min. IL-23 at 20 nM without peptide, “IL-23 only”, was used as control to quantify IL-23 binding without blockage; while “cold” IL-23R was used as a positive control for blockage.

[2] = molecular target: FGL-containing peptide phage (FGL Phage); assay: flow cytometry on yeast-displayed IL-23, phage detected with anti-M13-AF647; conditions: n = 2; parent: est. 24; read off a plot
[3] = IL-23-AVI captured on streptavidin chip, 25°C, 1:1 binding model, n = 1, 23–447 an estimate

wild-type IL-23 displayed on yeast (from UniProt Q9NPF7;P29460) W26A, sequence (P29460 whole entry, looked up): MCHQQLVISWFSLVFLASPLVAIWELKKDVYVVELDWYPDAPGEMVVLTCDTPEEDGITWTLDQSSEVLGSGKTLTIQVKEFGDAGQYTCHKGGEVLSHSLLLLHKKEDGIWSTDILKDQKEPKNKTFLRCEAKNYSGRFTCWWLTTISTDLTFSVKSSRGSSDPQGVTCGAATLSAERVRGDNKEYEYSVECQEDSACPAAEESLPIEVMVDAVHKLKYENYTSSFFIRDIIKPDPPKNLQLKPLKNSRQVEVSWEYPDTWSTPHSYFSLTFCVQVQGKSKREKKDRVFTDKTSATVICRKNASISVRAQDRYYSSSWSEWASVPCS
wild-type IL-23 displayed on yeast (from UniProt Q9NPF7;P29460) W26A, sequence (Q9NPF7 whole entry, looked up): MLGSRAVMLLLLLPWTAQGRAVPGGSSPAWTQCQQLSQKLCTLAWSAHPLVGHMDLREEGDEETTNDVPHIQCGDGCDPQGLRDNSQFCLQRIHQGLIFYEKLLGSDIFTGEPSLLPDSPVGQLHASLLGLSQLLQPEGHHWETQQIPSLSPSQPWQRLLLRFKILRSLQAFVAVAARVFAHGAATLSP
wild-type IL-23 displayed on yeast (from UniProt Q9NPF7;P29460) L24A, sequence (P29460 whole entry, looked up): as the sequence (P29460 whole entry, looked up) above
wild-type IL-23 displayed on yeast (from UniProt Q9NPF7;P29460) L24A, sequence (Q9NPF7 whole entry, looked up): as the sequence (Q9NPF7 whole entry, looked up) above
wild-type IL-23 displayed on yeast (from UniProt Q9NPF7;P29460) K20A, sequence (P29460 whole entry, looked up): as the sequence (P29460 whole entry, looked up) above
wild-type IL-23 displayed on yeast (from UniProt Q9NPF7;P29460) K20A, sequence (Q9NPF7 whole entry, looked up): as the sequence (Q9NPF7 whole entry, looked up) above

Molecule | kon [1, 3] | response [2] | other results
CC[C@H](C)[C@H](NC(=O)[C@H](CO)NC(=O)[C@H](Cc1c[nH]c2ccccc12)NC(=O)[C@H](CC(C)C)NC(=O)[C@H](CCSC)NC(=O)[C@@H]1CSSC[C@H](NC(=O)[C@H](CC(C)C)NC(=O)[C@@H](NC(=O)[C@H](CCC(N)=O)NC(=O)[C@H](CC(C)C)NC(=O)[C@@H](N)CC(C)C)[C@@H](C)O)C(=O)N[C@@H](CCC(N)=O)C(=O)N[C@@H](CCSC)C(=O)N[C@@H]([C@@H](C)O)C(=O)N[C@@H](CO)C(=O)N[C@@H](CC(=O)O)C(=O)N[C@@H](C)C(=O)N[C@@H](CCCNC(=N)N)C(=O)N[C@@H]([C@@H](C)O)C(=O)N1)C(=O)O [23–443] (H-LLQTLCQMTSDARTCMLWSI-OH; disulfide 6-15 (inferred); N-terminus and C-terminus assumed) |  |  | Kd ([1]; IL-23-AVI captured on streptavidin chip, 25°C, 1:1 binding model, n = 1, 23–447 an estimate, NB: not binding as free peptide): > 30 µM; binding to IL-23 as a free peptide ([1]; chemically synthesized peptide): did not retain its binding
CC(C)C[C@@H]1NC(=O)CNC(=O)[C@H](Cc2ccccc2)NC(=O)[C@H](Cc2c[nH]c3ccccc23)NC(=O)[C@@H](NC(=O)[C@@H]2CCCN2C(=O)[C@H](CC(=O)O)NC(=O)[C@@H]2CCCN2C(=O)[C@@H](NC(=O)[C@@H](N)Cc2c[nH]cn2)C(C)C)CSSC[C@@H](C(=O)N[C@@H](CC(=O)O)C(=O)N[C@H](C(=O)N[C@@H](CC(C)C)C(=O)N[C@@H](CC(N)=O)C(=O)N[C@@H](CO)C(=O)O)C(C)C)NC(=O)[C@H](CC(C)C)NC1=O [23–644] (H-HVPDPCWFGLLCDVLNS-OH; disulfide 6-12) | 49300 M⁻¹ s⁻¹ |  | 
CSCC[C@H](NC(=O)[C@H](CCC(N)=O)NC(=O)[C@@H]1CSSC[C@H](NC(=O)[C@H](Cc2ccccc2)NC(=O)[C@H](CO)NC(=O)[C@H](CCCCN)NC(=O)[C@@H](NC(=O)[C@H](CC(C)C)NC(=O)[C@@H](NC(=O)[C@@H](N)CC(=O)O)[C@@H](C)O)[C@@H](C)O)C(=O)N[C@@H](Cc2ccc(O)cc2)C(=O)N[C@@H](Cc2ccccc2)C(=O)NCC(=O)N[C@@H]([C@@H](C)O)C(=O)N[C@@H](Cc2c[nH]c3ccccc23)C(=O)N1)C(=O)N[C@@H](Cc1ccc(O)cc1)C(=O)NCC(=O)N[C@@H](CO)C(=O)N[C@H](C(=O)O)[C@@H](C)O [23–652] (H-DTLTKSFCYFGTWCQMYGST-OH; disulfide 8-14) | 36600 M⁻¹ s⁻¹ |  | 
wild-type IL-23 displayed on yeast (from UniProt Q9NPF7;P29460) W26A |  | 1.1 | 

More lines, main results first:

kon [1, 3] | response [2] | Molecule | other results
 | 17 | wild-type IL-23 displayed on yeast (from UniProt Q9NPF7;P29460) L24A | 
 | 22 | wild-type IL-23 displayed on yeast (from UniProt Q9NPF7;P29460) K20A | 
